According to patent US20260234124A1, “Substituted Pyrazolyl-Pyridinyl Compounds as Ligand Directed Degraders of IRAK3” (Celgene Corporation, priority 2022, published 2026):

Tests used:
[1] = target: T1, IRAK3 (Homo sapiens, UniProt Q9Y616); experiment: IRAK3 biochemical binding assay (LanthaScreen Eu Kinase Binding, TR-FRET); details: 10 nM tracer, 10 nM IRAK3, 1 hour at room temperature
T1 sequence (Q9Y616 1-596): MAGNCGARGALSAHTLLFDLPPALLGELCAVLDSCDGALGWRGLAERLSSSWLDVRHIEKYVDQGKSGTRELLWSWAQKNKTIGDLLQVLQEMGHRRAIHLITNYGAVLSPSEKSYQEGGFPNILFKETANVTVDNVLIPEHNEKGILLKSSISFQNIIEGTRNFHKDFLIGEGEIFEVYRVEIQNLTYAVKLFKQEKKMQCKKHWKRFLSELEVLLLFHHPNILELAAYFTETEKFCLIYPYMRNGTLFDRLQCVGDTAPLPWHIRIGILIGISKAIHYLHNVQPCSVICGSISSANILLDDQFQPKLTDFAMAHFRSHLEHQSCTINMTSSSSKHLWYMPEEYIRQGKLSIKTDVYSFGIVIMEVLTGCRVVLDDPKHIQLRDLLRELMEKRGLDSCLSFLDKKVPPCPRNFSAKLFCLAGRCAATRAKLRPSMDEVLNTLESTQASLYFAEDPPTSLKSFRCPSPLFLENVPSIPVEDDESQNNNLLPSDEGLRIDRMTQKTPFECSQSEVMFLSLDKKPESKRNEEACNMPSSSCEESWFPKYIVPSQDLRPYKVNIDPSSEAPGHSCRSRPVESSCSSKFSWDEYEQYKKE
Experimental: Example B3. IRAK3 Biochemical Binding Assay
The LanthaScreen® Eu Kinase Binding assay was performed as described by the vendor (ThermoFisher Scientific Waltham, MA). Briefly, 100× solutions of compound were prepared in DMSO via serial dilution of the 10 mM stock solution in a 384-well reagent plate using 3-fold intervals to achieve final concentrations. 1 μL of the compound dilution series were added to the corresponding wells of a 384-well reagent plate containing 32.3 μL of 1× buffer (50 mM HEPES pH 7.4, […], 1 mM EGTA, 0.01% Brij-35). 5 μL of the buffer diluted compounds were transferred to the corresponding wells of a 384-well assay plate. 5 μL of 3× tracer was transferred to each well of the assay plate for a final tracer concentration of 10 nM. Finally, 5 μL of the 3× Eu-Anti-GST and IRAK3 mix was transferred to each well for a final concentration of 2 nM and 10 nM, respectively. Reactions were allowed to incubate for 1 hour at room temperature. TR-FRET signal of the interaction ([…]/λem 665/λem 615) was read at room temperature with a delay time of 100 μs and an integration time of 200 μs using an Envision plate reader. Background corrected emission signal ratios at each compound concentration were used to calculate percentage of inhibition (% o Inhibition). Plots of % Inhibition versus inhibitor concentrations were fit according to a dose-response equation (Eq. 1) to generate IC50 and Hill slope values using Dotmatics software (Dotmatics, Bishops Storford, Hertfordshire, England).
(§1) Using these assays, IC50, Dmax, EC50, and DC50 values of the following compounds were determined. Dmax is defined as the maximum percent degradation achieved and DC50 is the concentration at which 50% degradation is achieved.

[2] = target: T1, IRAK3; experiment: IRAK endogenous HTRF degradation assay (Total-IRAK3 HTRF kit); type: cell-based; set-up: IRAK Endogenous HTRF Degradation Assay; endogenous in cells; details: endogenous IRAK3, overnight incubation; % Dmax = 100 − Ymin
Experimental: Example B2. IRAK Endogenous HTRF Degradation Assay
Cells (~50k) were plated in Cisbio 96-well low volume white plates (Cisbio: cat #66PL96005). Compounds were dissolved in DMSO and a 3-fold serial dilution was performed using a TECAN D300E. Cells were incubated with the compound overnight. Total-IRAK3 HTRF kit from Cisbio was used for degradation analysis (Cisbio: 63ADK101PEH). Cryptate and D2 antibodies were diluted in Detection buffer as per manufacturers recommendation. Then 2 μL of each solution was added to 16 μL lysate. Buffer control (lysis buffer detection buffer), Cryptate control (lysis buffer+cryptate antibody+detection buffer), and Negative control (lysis buffer+cryptate antibody+D2 antibody) were made as per manufacturers recommendation. Post incubation with antibodies the HTRF signal was measured using a Perkin Elmer Envision reader and the HTRF signal was calculated using formula: (Emission at 665 nm/Emission at 615 nm)*10,000. All HTRF values were normalized to the average value of DMSO. The average value of the DMSO control wells were set to equal 100% of the relative IRAK3 protein levels. Normalized luminescence values were plotted on a graph as a function of compound concentration. Compound concentration was plotted on the x-axis and the corresponding normalized IRAK3 protein levels on the y-axis. The EC50 value (the half-maximum effective concentration) of a compound for the degradation of the IRAK3 was calculated using a four-parameter logistic model (sigmoidal dose-response model) (FIT=(A+{(B−A)/1+[(C/x)D]})) where C is the inflection point (EC50), D is the […], and A and B are the low and high limits of the fit, respectively). The Ymin was calculated by determining the lowest percentage of target protein remaining following compound treatment. Dmax was calculated from Ymin (% Dmax=100−Ymin).
as §1

Structure (SMILES) | IC50 [1] | Dmax [2]
Cc1ncsc1-c1ccc(CNC(=O)[C@@H]2C[C@@H](O)CN2C(=O)[C@@H](NC(=O)COCCOCCOCCOCCN2CCC(n3cc(-c4cnc(N)c(O[C@H](C)c5c(Cl)ccc(F)c5Cl)c4)cn3)CC2)C(C)(C)C)cc1 [Compound 4, (2S,4R)-1-((S)-17-(4-(4-(6-amino-5-((R)-1-(2,6-dichloro-3-fluorophenyl)ethoxy)pyridin-3-yl)-1H-pyrazol-1-yl)piperidin-1-yl)-2-(tert-butyl)-4-oxo-6,9,12,15-tetraoxa-3-azaheptadecanoyl)-4-hydroxy-N-(4-(4-methylthiazol-5-yl)benzyl)pyrrolidine-2-carboxamide] | 120 nM | 21%
Cc1ncsc1-c1ccc(CNC(=O)[C@@H]2C[C@@H](O)CN2C(=O)[C@@H](NC(=O)CCCN2CCC(n3cc(-c4cnc(N)c(O[C@H](C)c5c(Cl)ccc(F)c5Cl)c4)cn3)CC2)C(C)(C)C)cc1 [Compound 1, (2S,4R)-1-((S)-2-(4-(4-(4-(6-amino-5-((R)-1-(2,6-dichloro-3-fluorophenyl)ethoxy)pyridin-3-yl)-1H-pyrazol-1-yl)piperidin-1-yl)butanamido)-3,3-dimethylbutanoyl)-4-hydroxy-N-(4-(4-methylthiazol-5-yl)benzyl)pyrrolidine-2-carboxamide] | 111 nM | 41%
Cc1ncsc1-c1ccc(CNC(=O)[C@@H]2C[C@@H](O)CN2C(=O)[C@@H](NC(=O)COCCOCCN2CCC(n3cc(-c4cnc(N)c(O[C@H](C)c5c(Cl)ccc(F)c5Cl)c4)cn3)CC2)C(C)(C)C)cc1 [Compound 2, (2S,4R)-1-((S)-2-(2-(2-(2-(4-(4-(6-amino-5-((R)-1-(2,6-dichloro-3-fluorophenyl)ethoxy)pyridin-3-yl)-1H-pyrazol-1-yl)piperidin-1-yl)ethoxy)ethoxy)acetamido)-3,3-dimethylbutanoyl)-4-hydroxy-N-(4-(4-methylthiazol-5-yl)benzyl)pyrrolidine-2-carboxamide] | 139 nM | 35%
Cc1ncsc1-c1ccc(CNC(=O)[C@@H]2C[C@@H](O)CN2C(=O)[C@@H](NC(=O)COCCOCCOCCOCCOCCOCCOCCN2CCC(n3cc(-c4cnc(N)c(O[C@H](C)c5c(Cl)ccc(F)c5Cl)c4)cn3)CC2)C(C)(C)C)cc1 [Compound 7, (2S,4R)-1-((S)-26-(4-(4-(6-amino-5-((R)-1-(2,6-dichloro-3-fluorophenyl)ethoxy)pyridin-3-yl)-1H-pyrazol-1-yl)piperidin-1-yl)-2-(tert-butyl)-4-oxo-6,9,12,15,18,21,24-heptaoxa-3-azahexacosanoyl)-4-hydroxy-N-(4-(4-methylthiazol-5-yl)benzyl)pyrrolidine-2-carboxamide] | 331 nM | 50%
C[C@@H](Oc1cc(-c2cnn(C3CCN(CCOCCOCCOCCOCCNC(=O)COc4ccc5c(c4)C(=O)N(C4CCC(=O)NC4=O)C5=O)CC3)c2)cnc1N)c1c(Cl)ccc(F)c1Cl (stereo partly drawn) [Compound 17, N-(14-(4-(4-(6-amino-5-((R)-1-(2,6-dichloro-3-fluorophenyl)ethoxy)pyridin-3-yl)-1H-pyrazol-1-yl)piperidin-1-yl)-3,6,9,12-tetraoxatetradecyl)-2-((2-(2,6-dioxopiperidin-3-yl)-1,3-dioxoisoindolin-5-yl)oxy)acetamide] | 100 nM | 32%
Cc1ncsc1-c1ccc(CNC(=O)[C@@H]2C[C@@H](O)CN2C(=O)[C@@H](NC(=O)COCCOCCOCCN2CCC(n3cc(-c4cnc(N)c(O[C@H](C)c5c(Cl)ccc(F)c5Cl)c4)cn3)CC2)C(C)(C)C)cc1 [Compound 3, (2S,4R)-1-((S)-14-(4-(4-(6-amino-5-((R)-1-(2,6-dichloro-3-fluorophenyl)ethoxy)pyridin-3-yl)-1H-pyrazol-1-yl)piperidin-1-yl)-2-(tert-butyl)-4-oxo-6,9,12-trioxa-3-azatetradecanoyl)-4-hydroxy-N-(4-(4-methylthiazol-5-yl)benzyl)pyrrolidine-2-carboxamide] | 186 nM | 42%

Stronger by IC50 [1], values ahead:

IC50 [1] | Dmax [2] | Structure (SMILES)
12 nM | 73% | C[C@@H](Oc1cc(-c2cnn(C3CCN(C4CCC5(CC4)CCN(C(=O)c4ccc6c(c4)C(=O)N(C4CCC(=O)NC4=O)C6=O)CC5)CC3)c2)cnc1N)c1c(Cl)ccc(F)c1Cl (stereo partly drawn) [Compound 18, 5-(9-(4-(4-(6-amino-5-((R)-1-(2,6-dichloro-3-fluorophenyl)ethoxy)pyridin-3-yl)-1H-pyrazol-1-yl)piperidin-1-yl)-3-azaspiro[5.5]undecane-3-carbonyl)-2-(2,6-dioxopiperidin-3-yl)isoindoline-1,3-dione]
47 nM | 25% | C[C@@H](Oc1cc(-c2cnn(C3CCN(CCOCCOCCOCCNC(=O)COc4ccc5c(c4)C(=O)N(C4CCC(=O)NC4=O)C5=O)CC3)c2)cnc1N)c1c(Cl)ccc(F)c1Cl (stereo partly drawn) [Compound 16, N-(2-(2-(2-(2-(4-(4-(6-amino-5-((R)-1-(2,6-dichloro-3-fluorophenyl)ethoxy)pyridin-3-yl)-1H-pyrazol-1-yl)piperidin-1-yl)ethoxy)ethoxy)ethoxy)ethyl)-2-((2-(2,6-dioxopiperidin-3-yl)-1,3-dioxoisoindolin-5-yl)oxy)acetamide]
5 nM | 81% | C[C@@H](Oc1cc(-c2cnn(C3CCN(C4CCC5(CC4)CCN(C(=O)c4cccc(NC6CCC(=O)NC6=O)c4)CC5)CC3)c2)cnc1N)c1c(Cl)ccc(F)c1Cl (stereo partly drawn) [Compound 22, 3-((3-(9-(4-(4-(6-Amino-5-((R)-1-(2,6-dichloro-3-fluorophenyl)ethoxy)pyridin-3-yl)-1H-pyrazol-1-yl)piperidin-1-yl)-3-azaspiro[5.5]undecane-3-carbonyl)phenyl)amino)piperidine-2,6-dione]
70 nM | 3% | C[C@@H](Oc1cc(-c2cnn(C3CCN(CCOCCNC(=O)COc4ccc5c(c4)C(=O)N(C4CCC(=O)NC4=O)C5=O)CC3)c2)cnc1N)c1c(Cl)ccc(F)c1Cl (stereo partly drawn) [Compound 14, N-(2-(2-(4-(4-(6-amino-5-((R)-1-(2,6-dichloro-3-fluorophenyl)ethoxy)pyridin-3-yl)-1H-pyrazol-1-yl)piperidin-1-yl)ethoxy)ethyl)-2-((2-(2,6-dioxopiperidin-3-yl)-1,3-dioxoisoindolin-5-yl)oxy)acetamide]
45 nM | 23% | C[C@@H](Oc1cc(-c2cnn(C3CCN(CCOCCNC(=O)COc4cccc5c4C(=O)N(C4CCC(=O)NC4=O)C5=O)CC3)c2)cnc1N)c1c(Cl)ccc(F)c1Cl (stereo partly drawn) [Compound 9, N-(2-(2-(4-(4-(6-amino-5-((R)-1-(2,6-dichloro-3-fluorophenyl)ethoxy)pyridin-3-yl)-1H-pyrazol-1-yl)piperidin-1-yl)ethoxy)ethyl)-2-((2-(2,6-dioxopiperidin-3-yl)-1,3-dioxoisoindolin-4-yl)oxy)acetamide]
